Consider 23 compounds from patent US10780095B2, “Compositions and methods for treating disorders of circadian and diurnal rhythms using prokineticin 2 agonists and antagonists” (THE REGENTS OF THE UNIVERSITY OF CALIFORNIA, priority 2016, dated 2020).

One assay addresses recombinant PKR2 (Homo sapiens (Human), UniProt Q8NFJ6). The experiment in a line: Aequorin-based luminescent Ca2+ mobilization assay, antagonist mode, PKR2. The class given is cell-based. The note with it: CHO cells stably expressing aequorin and recombinant PKR2; challenge with recombinant PK2; Ki converted from IC50 by IC50/(1+[PK2]/EC50PK2). Here is the method:
(§1) An aequorin-based luminescent assay for calcium mobilization was used to measure mobilization of intracellular Ca^2+ (Bullock et al., Mol Pharmacol 65, 582-588, 2004). Chinese hamster ovary (CHO) cells stably expressing photoprotein aequorin and recombinant PKR1 or PKR2 were tested by this method. Briefly, the cells were charged in Opti-MEM™ (Invitrogen) containing 8 μM of coelenterazine cp at 37° C. for 2 hours. Cells were detached by brief trypsinization and maintained in Hank's Balanced Salt Solution (HBSS) plus 10 mM HEPES (pH7.5) and 0.1% BSA at about 5×10^5 cells/ml. Luminescence measurements were made using a Berthold luminometer.
(§2) All compounds were diluted in HBSS plus 10 mM HEPES (pH7.5) and 0.1% BSA. To test the agonist activity, 100 μl of cells were injected into the tubes with 20 μl of compounds. For antagonist assays, 80 μl cells were incubated in the tubes with 20 μl different concentrations of antagonists at room temperature for 20 minutes, and then 100 μl of recombinant PK2 were injected. The IC50 obtained from the assays were then converted to Ki values using the formula: IC50/(1+[PK2]/EC50PK2).

The target of a further assay is recombinant PKR1 (Homo sapiens (Human), UniProt Q8TCW9). In words: Aequorin-based luminescent Ca2+ mobilization assay, antagonist mode, PKR1. The class given is cell-based. The settings on record: CHO cells stably expressing aequorin and recombinant PKR1; challenge with recombinant PK2; Ki converted from IC50 by IC50/(1+[PK2]/EC50PK2). Here is the method:
as §1, §2

A further assay deals with monkeys. In words: Sleep time in monkeys (wireless sleep tracker) after PK2 antagonist. In kind it is in vivo, Macaca fascicularis.
Assay [1] deals with mice. The experiment in a line: Arousal level (EEG/EMG wake time) in mice after PK2 antagonist. The class given is in vivo.
Assay [2] concerns mice. The experiment in a line: Locomotor activity in mice after PK2 antagonist. The class given is in vivo.

Values joined by “and” are separate entries in the source; they are usually repeats but may differ in a detail not shown here. Equal values may be shown once. Where only a bound is given, the exact number is not on record here.

recombinant PKR2, sequence (Q8NFJ6 whole entry): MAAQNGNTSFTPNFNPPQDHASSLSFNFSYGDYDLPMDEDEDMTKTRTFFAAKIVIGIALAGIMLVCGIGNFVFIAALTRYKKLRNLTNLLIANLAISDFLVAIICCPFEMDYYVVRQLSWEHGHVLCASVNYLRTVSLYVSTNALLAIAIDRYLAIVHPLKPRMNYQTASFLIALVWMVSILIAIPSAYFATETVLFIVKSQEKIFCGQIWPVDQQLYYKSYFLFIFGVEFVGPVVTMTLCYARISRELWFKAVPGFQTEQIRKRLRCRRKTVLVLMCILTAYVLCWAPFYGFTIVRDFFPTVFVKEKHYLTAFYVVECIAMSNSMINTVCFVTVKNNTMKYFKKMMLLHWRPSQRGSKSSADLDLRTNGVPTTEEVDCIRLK
recombinant PKR1, sequence (Q8TCW9 whole entry): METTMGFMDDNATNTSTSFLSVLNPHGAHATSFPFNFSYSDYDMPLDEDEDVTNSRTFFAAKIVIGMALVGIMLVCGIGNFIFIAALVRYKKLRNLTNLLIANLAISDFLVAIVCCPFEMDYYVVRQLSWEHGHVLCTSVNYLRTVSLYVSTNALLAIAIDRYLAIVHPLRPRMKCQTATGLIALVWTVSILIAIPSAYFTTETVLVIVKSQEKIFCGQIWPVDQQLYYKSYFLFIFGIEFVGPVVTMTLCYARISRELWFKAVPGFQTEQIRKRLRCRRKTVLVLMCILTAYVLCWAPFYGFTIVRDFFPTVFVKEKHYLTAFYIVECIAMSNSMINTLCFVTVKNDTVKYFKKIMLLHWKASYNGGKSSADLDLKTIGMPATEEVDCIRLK

One may read the Ki as the equilibrium dissociation constant of an inhibitor or competing ligand from its target. For the compound `CC(C)CN(Cc1cc(Cl)c2c(c1)OCCCO2)C(=O)[C@@H]1CCCN(Cc2cccc3nc[nH]c23)C1` [(−)-(3R)-1-(benzimidazol-4-ylmethyl)-N-(9-chloro-3,4-dihydro-2H-1,5-benzodioxepin-7-ylmethyl)-N-isobutylpiperidine-3-carboxamide], the Ki at recombinant PKR2 is 3 nM; at recombinant PKR1, 97 nM.

For the compound `COc1ccc(F)cc1CN1CCO[C@@H](C(=O)N(Cc2cc(Cl)c3c(c2)OCCCO3)CC(C)C)C1` [(−)-(2R)-1-(5-Fluoro-2-methoxybenzyl)-N-(9-chloro-3,4-dihydro-2H-1,5-benzodioxepin-7-ylmethyl)-N-isobutylmorpholine-2-carboxamide], the inhibition constant Ki on recombinant PKR1 amounted to 7.3 nM.

Regarding `COc1ccccc1CN1CCO[C@@H](C(=O)N(Cc2cc(Cl)c3c(c2)OCCCO3)CC(C)C)C1` [(−)-(2R)-1-(2-Methoxybenzyl)-N-(9-chloro-3,4-dihydro-2H-1,5-benzodioxepin-7-ylmethyl)-N-isobutylmorpholine-2-carboxamide], at recombinant PKR1, the inhibition constant (Ki) came to 1.49 nM.

Turning to `COc1cc(F)ccc1CN1CC[C@@H](C(=O)N(Cc2cc(Cl)c3c(c2)OCCCO3)CC(C)C)C1` [(−)-(3R)-1-(4-Fluoro-2-methoxybenzyl)-N-(9-chloro-3,4-dihydro-2H-1,5-benzodioxepin-7-ylmethyl)-N-isobutylpyrrolidine-3-carboxamide], the Ki at recombinant PKR1 amounted to 9.32 nM.

Take `COc1c(F)cccc1CN1CC[C@@H](C(=O)N(Cc2cc(Cl)c3c(c2)OCCCO3)CC(C)C)C1` [(−)-(3R)-1-(3-Fluoro-2-methoxybenzyl)-N-(9-chloro-3,4-dihydro-2H-1,5-benzodioxepin-7-ylmethyl)-N-isobutylpyrrolidine-3-carboxamide]: on recombinant PKR1, the inhibition constant Ki turned out to be 170 nM.

As for `CC(C)CN(Cc1cc(Cl)c2c(c1)OCCCO2)C(=O)[C@@H]1CCN(Cc2cc(F)cc3nc[nH]c23)C1` [(−)-(3R)-1-(5-fluro-benzimidazol-4-ylmethyl)-N-(9-chloro-3,4-dihydro-2H-1,5-benzodioxepin-7-ylmethyl)-N-isobutylpyrrolidine-3-carboxamide], on recombinant PKR1, the Ki stood at 71.3 nM.

With `CC(C)CN(Cc1cc(Cl)c2c(c1)OCCCO2)C(=O)[C@H](C)CNCc1cccc2nc[nH]c12` [(−)-(2R)-2-Methyl-3-(benzimidazol-4-ylmethylamino)-N-(9-chloro-3,4-dihydro-2H-1,5-benzodioxepin-7-ylmethyl)-N-isobutylpropanamide], the Ki on recombinant PKR1 is 3.5 nM and 4.2 nM.

On to `COc1cc(CNCC(C)C(=O)N(Cc2cc(Cl)c3c(c2)OCCCO3)CC(C)C)c(F)cc1F` (racemic) [(±)-2-Methyl-3-((3-methoxy-4,6-difluoro)benzylamino)-N-(9-chloro-3,4-dihydro-2H-1,5-benzodioxepin-7-ylmethyl)-N-isobutylpropanamide], for which the Ki at recombinant PKR1 stood at 43.5 nM.

`CC(C)CN(Cc1cc(Cl)c2c(c1)OCCCO2)C(=O)[C@H]1CN(Cc2cc(F)cc3nc[nH]c23)CCO1` [(−)-(2R)-1-(5-fluro-benzimidazol-4-ylmethyl)-N-(9-chloro-3,4-dihydro-2H-1,5-benzodioxepin-7-ylmethyl)-N-isobutylmorpholine-2-carboxamide]: the Ki on recombinant PKR1 was 6.14 nM.

In the case of `COc1cc(CN2CC[C@@H](C(=O)N(Cc3cc(Cl)c4c(c3)OCCCO4)CC(C)C)C2)c(F)cc1F` [(−)-(3R)-1-(4,6-Difluoro-3-methoxybenzyl)-N-(9-chloro-3,4-dihydro-2H-1,5-benzodioxepin-7-ylmethyl)-N-isobutylpyrrolidine-3-carboxamide], on recombinant PKR1, the inhibition constant (Ki) was found to be 6.14 nM.

For `COc1ccc(F)c(CN2CC[C@@H](C(=O)N(Cc3cc(Cl)c4c(c3)OCCCO4)CC(C)C)C2)c1` [(−)-(3R)-1-(6-Fluoro-3-methoxybenzyl)-N-(9-chloro-3,4-dihydro-2H-1,5-benzodioxepin-7-ylmethyl)-N-isobutylpyrrolidine-3-carboxamide], on recombinant PKR1, the Ki turned out to be 301 nM.

As to `COc1cc(CN2CCC[C@@H](C(=O)N(Cc3cc(Cl)c4c(c3)OCCCO4)CC(C)C)C2)c(F)cc1F` [(−)-(3R)-1-(4,6-Difluoro-3-methoxybenzyl)-N-(9-chloro-3,4-dihydro-2H-1,5-benzodioxepin-7-ylmethyl)-N-isobutylpiperidine-3-carboxamide], the inhibitory constant (Ki) at recombinant PKR1 came out at 13.8 nM.

As to `COc1ccc(F)c(CN2CCO[C@@H](C(=O)N(Cc3cc(Cl)c4c(c3)OCCCO4)CC(C)C)C2)c1` [(−)-(2R)-1-(6-Fluoro-3-methoxybenzyl)-N-(9-chloro-3,4-dihydro-2H-1,5-benzodioxepin-7-ylmethyl)-N-isobutylmorpholine-2-carboxamide], the Ki at recombinant PKR1 came out at 10 nM.

With `COc1cc(CN2CCO[C@@H](C(=O)N(Cc3cc(Cl)c4c(c3)OCCCO4)CC(C)C)C2)ccc1F` [(−)-(2R)-1-(4-Fluoro-3-methoxybenzyl)-N-(9-chloro-3,4-dihydro-2H-1,5-benzodioxepin-7-ylmethyl)-N-isobutylmorpholine-2-carboxamide], the Ki is 1.9 nM at recombinant PKR2; 2.6 nM and 5.4 nM on recombinant PKR1.

For `COc1cccc(CN2CCO[C@@H](C(=O)N(Cc3cc(Cl)c4c(c3)OCCCO4)CC(C)C)C2)c1` [(−)-(2R)-1-(3-Methoxybenzyl)-N-(9-chloro-3,4-dihydro-2H-1,5-benzodioxepin-7-ylmethyl)-N-isobutylmorpholine-2-carboxamide], the Ki on recombinant PKR1 stood at 2.5 nM.

As for `COc1cc(F)ccc1CN1CCO[C@@H](C(=O)N(Cc2cc(Cl)c3c(c2)OCCCO3)CC(C)C)C1` [(−)-(2R)-1-(4-Fluoro-2-methoxybenzyl)-N-(9-chloro-3,4-dihydro-2H-1,5-benzodioxepin-7-ylmethyl)-N-isobutylmorpholine-2-carboxamide], the Ki at recombinant PKR1 was 7.3 nM.

For the compound `CC(C)CN(Cc1cc(Cl)c2c(c1)OCCCO2)C(=O)[C@@H]1CCN(Cc2cccc3nc[nH]c23)C1` [(−)-(3R)-1-(benzimidazol-4-ylmethyl)-N-(9-chloro-3,4-dihydro-2H-1,5-benzodioxepin-7-ylmethyl)-N-isobutylpyrrolidine-3-carboxamide], the Ki on recombinant PKR2 was 1.7 nM; on recombinant PKR1, 2.6 nM.

`COc1cc(CN2CCO[C@@H](C(=O)N(Cc3cc(Cl)c4c(c3)OCCCO4)CC(C)C)C2)c(F)cc1F` [(−)-(2R)-1-(4,6-Difluoro-3-methoxybenzyl)-N-(9-chloro-3,4-dihydro-2H-1,5-benzodioxepin-7-ylmethyl)-N-isobutylmorpholine-2-carboxamide]: at recombinant PKR1, the Ki was 4.09 nM.

For the compound `CC(C)CN(Cc1cc(Cl)c2c(c1)OCCCO2)C(=O)[C@@H]1CCN(Cc2ccc(F)c(O)c2)C1` [(−)-(3R)-1-(4-Fluoro-3-hydroxybenzyl)-N-(9-chloro-3,4-dihydro-2H-1,5-benzodioxepin-7-ylmethyl)-N-isobutylpyrrolidine-3-carboxamide], the inhibition constant Ki on recombinant PKR1 was found to be 107 nM.

For `CC(C)CN(Cc1cc(Cl)c2c(c1)OCCCO2)C(=O)C(C)CNCc1ccc(F)c(O)c1` (racemic) [(±)-2-Methyl-3-((3-hydroxy-4-fluoro)benzylamino)-N-(9-chloro-3,4-dihydro-2H-1,5-benzodioxepin-7-ylmethyl)-N-isobutylpropanamide], the Ki on recombinant PKR1 came to 4.4 nM.

Take `COc1ccc(F)cc1CN1CC[C@@H](C(=O)N(Cc2cc(Cl)c3c(c2)OCCCO3)CC(C)C)C1` [(−)-(3R)-1-(5-Fluoro-2-methoxybenzyl)-N-(9-chloro-3,4-dihydro-2H-1,5-benzodioxepin-7-ylmethyl)-N-isobutylpyrrolidine-3-carboxamide]: on recombinant PKR1, the Ki was 9.3 nM and 6.9 nM.

For the compound `COc1cc(CN2CC[C@@H](C(=O)N(Cc3cc(Cl)c4c(c3)OCCCO4)CC(C)C)C2)ccc1F` [PKRA83, (3R)-1-(4-Fluoro-3-methoxybenzyl)-N-(9-chloro-3,4-dihydro-2H-1,5-benzodioxepin-7-ylmethyl)-N-isobutylpyrrolidine-3-carb oxamide], the “increase of the sleep time” value with monkeys (10 mg/kg intramuscularly at ZT10, vs vehicle (FIG. 6C)) was greater than 70 min. The sleep time entry is reported as “significantly increased” with monkeys (nasal topic application, P<0.05 paired t-test (FIG. 19)) and “significantly increased” in the assay with monkeys (ocular topic application, P<0.05 paired t-test (FIG. 15)). Besides, in the assay on mice [1] (40 mg/kg intraperitoneally at ZT6, vs vehicle (FIG. 6B)), the “wakefulness (wake time)” value is listed as “significantly increased”. Moreover, in the assay on mice [1] (ocular topic application at day time, P<0.05 paired t-test (FIG. 14)), the wake time entry is on record as “significantly increased”. Besides, the locomotor activity result with mice [2] (mice, 40 mg/kg intraperitoneally at ZT6, vs vehicle (FIG. 6A)) was “significantly increased”; with mice [2] (wild type mice, ocular topic delivery during the late night, vs control (FIG. 13)) it was “increased”.

As to `CC(C)CN(Cc1cc(Cl)c2c(c1)OCCCO2)C(=O)C(C)CNCc1cccc2nc[nH]c12` (racemic) [(±)-2-Methyl-3-(benzimidazol-4-ylmethylamino)-N-(9-chloro-3,4-dihydro-2H-1,5-benzodioxepin-7-ylmethyl)-N-isobutylpropanamide], the Ki on recombinant PKR2 amounted to 2.1 nM; on recombinant PKR1, 5.6 nM.
